The target of one data set is T1, human p38 kinase alpha (Homo sapiens, UniProt Q16539).
T1 construct: The coding region of the human p38a cDNA was obtained by PCR-amplification from RNA isolated from the human monocyte cell line THP.1; GST (N); made in house; host or cells: E. coli DH10B
Nature of the data set: p38 Kinase Assay (in vitro; PHAS-I/32P-ATP format or EGFRP/33P-ATP format). The data set is classed as biochemical. Particulars: activated human p38 kinase alpha, 50 μM unlabeled ATP; table does not say which of the two assay formats. On the procedure:
The coding region of the human p38a cDNA was obtained by PCR-amplification from RNA isolated from the human monocyte cell line THP.1. First strand cDNA was synthesized from total RNA as follows: 2 μg of RNA was annealed to 100 ng of random hexamer primers in a 10 μl reaction by heating to 70° C. for 10 minutes followed by 2 minutes on ice. cDNA was then synthesized by adding 1 μl of RNAsin (Promega, Madison Wis.), 2 μl of 50 mM dNTP's, 4 μl of 5×buffer, 2 μl of 100 mM DTT and 1 μl (200 U) of Superscript II™ […] reverse transcriptase. Random primer, dNTP's and Superscript™ reagents were all purchased from Life-Technologies, Gaithersburg, Mass. The reaction was incubated at 42° C. for 1 hour. Amplification of p38 cDNA was performed by aliquoting 5 μl of the reverse transcriptase reaction into a 100 μl PCR reaction containing the following: 80 μl dH2O, 2 μl 50 mM dNTP's, 1 μl each of forward and reverse primers (50 pmol/μl), 10 μl of 10× buffer and 1 μl Expand™ polymerase (Boehringer Mannheim). The PCR primers incorporated Bam HI sites onto the 5′ and 3′ end of the amplified fragment, and were purchased from Genosys. The forward and reverse primers were 5′-[…]-3′ and 5′[…]-3′, respectively. The PCR amplification was carried out in a DNA Thermal Cycler (Perkin Elmer) by repeating 30 cycles of 94° C. for 1 minute, 60° C. for 1 minute and 68° C. for 2 minutes. After amplification, excess primers and unincorporated dNTP's were removed from the amplified fragment with a Wizard™ PCR prep (Promega) and digested with Bam HI (New England Biolabs). The Bam HI digested fragment was ligated into BamHI digested pGEX 2T plasmid DNA (PharmaciaBiotech) using T-4 DNA ligase (New England Biolabs) as described by T. Maniatis, Molecular Cloning: A Laboratory Manual, 2nd ed. (1989). The ligation reaction was transformed into chemically competent E. coli DH10B cells purchased from Life-Technologies following the manufacturer's instructions. Plasmid DNA was isolated from the resulting bacterial colonies using a Promega Wizard™ miniprep kit. Plasmids containing the appropriate Bam HI fragment were sequenced in a DNA Thermal Cycler (Perkin Elmer) with Prism™ (Applied Biosystems Inc.). cDNA clones were identified that coded for both human p38a isoforms (Lee et al. Nature 372, 739). One of the clones which contained the cDNA for p38a-2 (CSBP-2) inserted in the cloning site of pGEX 2T, 3′ of the GST coding region was designated pMON 35802. The sequence obtained for this clone is an exact match of the cDNA clone reported by Lee et al. This expression plasmid allows for the production of a GST-p38a fusion protein.
Expression of Human p38a:
GST/p38a fusion protein was expressed from the plasmid pMON 35802 in E. coli, stain DH10B (Life Technologies, Gibco-BRL). Overnight cultures were grown in Luria Broth (LB) containing […] ampicillin. The next day, 500 ml of fresh LB was inoculated with 10 ml of overnight culture, and grown in a 2 liter flask at 37° C. with constant shaking until the culture reached an absorbance of 0.8 at 600 nm. Expression of the fusion protein was induced by addition of isopropyl b-D-thiogalactosidse (IPTG) to a final concentration of 0.05 mM. The cultures were shaken for three hours at room temperature, and the cells were harvested by centrifugation. The cell pellets were stored frozen until protein purification.
Purification of p38 Kinase-α:
All chemicals were from Sigma Chemical Co. unless noted. Twenty grams of E. coli cell pellet collected from five 1 L shake flask fermentations was resuspended in a volume of PBS (140 mM NaCl, 2.7 mM KCl, 10 mM Na2HPO4, 1.8 mM KH2PO4, pH 7.3) up to 200 ml. The cell suspension was adjusted to 5 mM DTT with 2 M DTT and then split equally into five 50 ml Falcon conical tubes. The cells were sonnicated (Ultrasonics model W375) with a 1 cm probe for 3×1 minutes (pulsed) on ice. […]

In data set [1] the test system is TNF-a (LPS-stimulated human peripheral blood mononuclear cells). Nature of the data set: TNF Cell Assay: LPS stimulation of human PBM cells, TNF-a by ELISA. The data set is classed as cell-based. To be noted: PBMC, LPS 20 ng/ml, overnight 37° C., compound 10-0.41 μM. On the procedure: Method of Isolation of Human Peripheral Blood Mononuclear Cells:
Human whole blood was collected in Vacutainer tubes containing EDTA as an anticoagulant. A blood sample (7 ml) was carefully layered over 5 ml PMN Cell Isolation Medium (Robbins Scientific) in a 15 ml round bottom centrifuge tube. The sample was centrifuged at 450-500×g for 30-35 minutes in a swing out rotor at room temperature. After centrifugation, the top band of cells were removed and washed 3 times with PBS w/o calcium or magnesium. The cells were centrifuged at 400×g for 10 minutes at room temperature. The cells were resuspended in Macrophage Serum Free Medium (Gibco BRL) at a concentration of 2 million cells/ml.
LPS Stimulation of Human PBMS:
PBM cells (0.1 ml, 2 million/ml) were co-incubated with 0.1 ml compound (10-0.41 μM, final concentration) for 1 hour in flat bottom 96 well microtiter plates. Compounds were dissolved in DMSO initially and diluted in TCM for a final concentration of 0.1% DMSO. LPS (Calbiochem, 20 ng/ml, final concentration) was then added at a volume of 0.010 ml. Cultures were incubated overnight at 37° C. Supernatants were then removed and tested by ELISA for TNF-a and IL1-b. Viability was analyzed using MTS. After 0.1 ml supernatant was collected, 0.020 ml MTS was added to remaining 0.1 ml cells. The cells were incubated at 37° C. for 2-4 hours, then the O.D. was measured at […].

Data set [2] relates to TNF-α released by U937 cells (human histiocytic lymphoma cell line). Nature of the data set: U937 Cell Assay: LPS stimulation of TNF production by U937 cells, ELISA. Format: cell-based. Particulars: U-937, differentiated U937 cells, LPS 100 ng/ml, 4 hour incubation. On the procedure:
Maintenance and Differentiation of the U937 Human Histiocytic Lymphoma Cell Line:
U937 cells (ATCC) were propagated in RPMI 1640 containing 10% fetal bovine serum, 100 IU/ml penicillin, 100 μg/ml streptomycin, and 2 mM glutamine (Gibco). Fifty million cells in 100 ml media were induced to terminal monocytic differentiation by 24 hour incubation with 20 ng/ml phorbol 12-myristate 13-acetate (Sigma). The cells were washed by centrifugation (200×g for 5 min) and resuspended in 100 ml fresh medium. After 24-48 hours, the cells were harvested, centrifuged, and resuspended in culture medium at 2 million cells/ml.
LPS Stimulation of TNF Production by U937 Cells:
U937 cells (0.1 ml, 2 million/ml) were incubated with 0.1 ml compound (0.004-50 μM, final concentration) for 1 hour in 96 well microtiter plates. Compounds were prepared as 10 mM stock solutions in DMSO and diluted in culture medium to yield a final DMSO concentration of 0.1% in the cell assay. LPS (E. coli, 100 ng/ml final concentration) was then added at a volume of 0.02 ml. After 4 hour incubation at 37° C., the amount of TNF-α released in the culture medium was quantitated by ELISA. Inhibitory potency is expressed as IC50 (μM).
On the technique in general: In an ELISA, binding on a coated surface is turned into a signal by an enzyme label.

T1 sequence (Q16539 whole entry): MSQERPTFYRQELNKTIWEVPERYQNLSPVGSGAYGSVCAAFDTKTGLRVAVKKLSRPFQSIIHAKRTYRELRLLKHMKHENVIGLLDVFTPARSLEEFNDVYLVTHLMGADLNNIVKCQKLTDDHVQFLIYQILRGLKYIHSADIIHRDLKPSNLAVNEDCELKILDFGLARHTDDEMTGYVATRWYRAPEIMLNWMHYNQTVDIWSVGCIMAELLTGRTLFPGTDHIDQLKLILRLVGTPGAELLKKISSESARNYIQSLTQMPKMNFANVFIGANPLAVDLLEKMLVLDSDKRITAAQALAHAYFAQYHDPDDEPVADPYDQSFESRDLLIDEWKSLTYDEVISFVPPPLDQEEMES

As a reminder, the IC50 is the concentration that inhibits the measured activity by half. Usually melting point stands for the temperature of the solid-liquid transition. In turn, `Cc1cnn(-c2cccc(F)c2)c1-c1ccncc1` [Example 2] displayed a melting point of 131.11 °C. This molecule also returned an IC50 against human p38 kinase alpha of 37.2 µM. In data set [1], this molecule yielded an IC50 of 4 µM.

On to `Cc1cnn(Cc2ccccc2)c1-c1ccncc1` [Example 4], for which the IC50 against human p38 kinase alpha is over 100 µM; in data set [1] it was over 10 µM.

Regarding `Cc1ccc(-n2nc(C)cc2-c2ccnc(NCCO)c2)cc1` [Example 5], the melting point came out at 148.2 °C. For the same molecule, the IC50 against human p38 kinase alpha is 1.4 µM. Half-maximal inhibition in data set [1] (IC50) was put at 0.2 µM.

`Cc1ccc(-n2nc(C)cc2-c2ccnc(NCc3cccnc3)c2)cc1` [Example 6] showed a melting point of 108.94 °C. The same molecule yielded an IC50 against human p38 kinase alpha of 0.4 µM. In data set [1], this molecule showed an IC50 of 1.5 µM.

`Cc1ccc(-n2nc(C)cc2-c2ccnc(NCc3ccccc3)c2)cc1` [Example 7] displayed a melting point of 102.1 °C. The molecule further came in with an IC50 on human p38 kinase alpha of 0.01 µM. Moreover, in data set [1], the midpoint of inhibition, the IC50, lay at 1.1 µM.

With `Cc1ccc(-n2nc(C)cc2-c2ccnc(N(C)C)c2)cc1` [Example 10], the values for the IC50 (against human p38 kinase alpha; in data set [1]) were over 100 µM and over 10 µM, respectively.

Molecule `Cc1ccc(-n2nc(C)cc2-c2cccc(N)c2)cc1` [Example 14] had a melting point of 94.38 °C. Further, the IC50 against human p38 kinase alpha is over 100 µM. For the same molecule, in data set [1], the IC50 was over 10 µM.

Turning to `Cc1cccc(-n2nc(C)cc2-c2ccnc(NCc3ccccc3)c2)c1` [Example 19, 2-(Benzylamino)-4-[1-(3-methylphenyl)-3-methyl-1H-pyrazol-5-yl]pyridine], the IC50 amounted to 0.002 µM on human p38 kinase alpha and 0.1 µM in data set [1].

As to `Cc1cc(-c2ccnc(NCc3ccccc3)c2)n(-c2cccc(F)c2)n1` [Example 20, 2-(Benzylamino)-4-[1-(3-fluorophenyl)-3-methyl-1H-pyrazol-5-yl]pyridine], the melting point lay within 94 to 96 °C.

`Cc1cccc(-n2nc(C)cc2-c2ccnc(N)c2)c1` [Example 21, 2-Amino-4-[1-(3-methylphenyl)-3-methyl-1H-pyrazol-5-yl]pyridine] registered a melting point of 124 to 125 °C. The half-maximal inhibitory concentration (IC50) against human p38 kinase alpha was 0.35 µM. Further, it took 0.5 µM to reach half-maximal inhibition in data set [1] (IC50).

Consider `Cc1cccc(-n2nc(C)cc2-c2ccnc(N(C)CCc3ccccc3)c2)c1` [Example 25, 2-(N-Methylphenylethylamino)-4-[1-(3-methylphenyl)-3-methyl-1H-pyrazol-5-yl]pyridine], for which the values for the IC50 (at human p38 kinase alpha; in data set [1]) were 2.24 µM and 0.8 µM, respectively.

Regarding `Fc1ccc(-n2nccc2-c2ccnc(NCCc3ccccc3)c2)cc1` [Example 30, 2-(Phenylethylamino)-4-[1-(4-fluorophenyl)-1H-pyrazol-5-yl]pyridine], the results for the IC50 (against human p38 kinase alpha; in data set [1]) were 0.024 µM and 10 µM, respectively.

`Cc1cccc(-n2nc(C)cc2-c2ccnc(C(N)=O)c2)c1` [Example 33, {4-[1-(3-Methylphenyl)-3-methyl-1H-pyrazol-5-yl]}-2-pyridine-2-carboxamide] gave a melting point of 193 to 195 °C. The molecule further returned an IC50 in data set [1] of 5 µM.

In turn, `Cc1cc(-c2ccnc(C(N)=O)c2)n(-c2ccc(F)cc2)n1` [Example 34, {4-[1-(4-Fluorophenyl)-3-methyl-1H-pyrazol-5-yl]}pyridine-2-carboxamide] displayed a melting point of 168 to 170 °C. Besides, the IC50 against human p38 kinase alpha was determined as 44 µM.

`Cc1cccc(-n2nc(C)cc2-c2ccnc(S(C)(=O)=O)c2)c1` [Example 36, 2-(Methylsulfonyl)-4-[1-(3-methylphenyl)-3-methyl-1H-pyrazol-5-yl]pyridine] returned a melting point of 140 to 142 °C. At human p38 kinase alpha, this molecule displayed an IC50 of 29.9 µM. For the same molecule, in data set [1], the IC50 was over 10 µM.

For `Cc1cc(-c2ccnc(N=[N+]=[N-])c2)n(-c2cccc(F)c2)n1` [Example 37, {4-[1-(3-Fluorophenyl)-3-methyl-1H-pyrazol-5-yl]}pyridine-2-azide], the melting point fell in the range of 134 to 135 °C. On human p38 kinase alpha, this molecule showed an IC50 of 85 µM. Moreover, in data set [1], half-maximal inhibition (IC50) required 2.2 µM.

`Cc1cc(-c2ccnc(NCc3cccnc3)c2)n(-c2cccc(F)c2)n1` [Example 38, 2-(3-Pyridylmethylamino)-4-[1-(3-fluorophenyl)-3-methyl-1H-pyrazol-5-yl]pyridine]: the IC50 is 0.219 µM at human p38 kinase alpha and 0.6 µM in data set [1].

The molecule `CCCc1c[nH][n+](-c2cccc(F)c2)c1-c1ccncc1` [Example 39] registered a melting point of 93 to 94 °C.

For `CCc1c[nH][n+](-c2cccc(F)c2)c1-c1ccncc1` [Example 40], the melting point was 109 to 110 °C.

For `Cc1ccc(-n2nc(C)cc2-c2ccnc(Cl)c2)cc1` [Example 41, 2-chloro-4-[3-methyl-1-(4-methylphenyl)-1H-pyrazol-5-yl]pyridine], the melting point was 100.07 °C. This molecule showed an IC50 at human p38 kinase alpha of 14 µM. Also, the half-maximal inhibitory concentration (IC50) in data set [1] was 2.9 µM.

`COC(=O)c1cnn(-c2ccc(F)cc2)c1-c1ccncc1` [Example 42, Methyl 1-(4-Fluorophenyl)-5-(4-pyridinyl)-1H-pyrazole-4-carboxylate]: the IC50 on human p38 kinase alpha was 2.68 µM; in data set [2], at least 10 µM.

Values taken from US6509361B1, “1,5-Diaryl substituted pyrazoles as p38 kinase inhibitors” (Pharmacia Corporation, priority 2001, dated 2003).
